From patent US11643430B2, “Porphyrin compound or salt thereof, cancer therapeutic agent, photosensitizer, and fluorescent probe” (M.T.3, Inc., priority 2020, dated 2023)

Experiments:
[1] = Fluorescence lifetime from fluorescence decay curves; format: physicochemical; conditions: monoexponential curve fitting, deconvolution method
Description: (§1) Next, the fluorescence quantum yields (Φf) and fluorescence lifetimes (τf) of the compounds were measured. Moreover, the quantum yields (ΦΔ) of singlet oxygen generated from the compounds of Structural Formulae (IIa) and (III) were measured.
Each of the fluorescence decay curves was subjected to curve fitting with a monoexponential function using a deconvolution method, and thus τf was determined.

[2] = system: Human-derived A549 cells; test: Efficiency of uptake by cancer cells; format: cell-based; conditions: 3 μM, 12 hours incubation, fluorescence ex 418 nm / em 646 nm
Source text: The compound of Structural Formula (III) to which a sulfur-containing sugar-chain is linked is more likely to accumulate in tumor. Regarding such an improvement in the accumulation, the following describes the evaluation of the efficiency of uptake of the compounds of structural Formulae (IIa) and (III) by cancer cells.
Human-derived A549 cells were used as cancer cells. Dulbecco's Modified Eagle Medium (DMEM) supplemented with 10% Fetal Bovine Serum (FBS: manufactured by EQUITECH-BIO, INC.) and 1% Penicillin Streptomycin Glutamine (Invitrogen (trademark)) was used as a culture medium, which will be described later. Phosphate buffered saline (PBS) was used as a cell washing solution, and PBS containing 0.05% trypsin and 0.02% EDTA was used as a cell detaching solution. A circular plastic petri dish (Greiner Bio-one, 628160) with a diameter of 6 cm was used as a culture container.
First, an A549 cell suspension was cultured on a culture medium. 100 μL of the cell suspension was added to each well of a black 96-well plate and cultured at 37° C. in a 5% CO2 atmosphere for a day. […] Furthermore, the concentrations of the photosensitizing agents inside the cells were quantified using a fluorescence micro plate reader (Infinite M200 Pro, manufactured by TECAN). For the fluorescence observation, the excitation wavelength was 418 nm, and the observation wavelength was 646 nm. […]

[3] = Quantum yield of singlet oxygen by 1270 nm phosphorescence; format: physicochemical; conditions: in ethanol, absorbance 0.1, irradiated at 355 nm, phosphorescence at 1270 nm, TPPS standard; sodium salt
Description: as §1
Next, the measurement of ΦΔ will be described. First, the compounds of Structural Formula (IIa) and (III) were each dissolved in ethanol at such a concentration that gave an absorbance of 0.1, and then were irradiated with light at 355 nm using Nd^3+:YAG LASER (LS-2137U, manufactured by Lotis TII). Next, singlet oxygen was measured using a self-produced infrared emission measurement apparatus in which a near-infrared photomultiplier tube (R5509-42, manufactured by Hamamatsu Photonics K.K.) is used. It should be noted that singlet oxygen was measured 17 times, and the average value was shown as a phosphorescence spectrum in FIG. 4. Singlet oxygen emits phosphorescence at a near-infrared wavelength 1270 nm. Therefore, in this specification, ΦΔ was determined by measuring the intensity of such phosphorescence. TPPS (ΦΔ=0.63) was used as a standard substance for determination of ΦΔ. ΦΔ of the compound of Structural Formula (IIa) and ΦΔ of the compound of Structural Formula (III) were determined as 0.57 and 0.53, respectively.

[4] = Fluorescence quantum yield, absolute PL quantum yield spectrometer; format: physicochemical
Description: as §1

[5] = standard for determination of ΦΔ; cited from earlier work

Row | Compound | fluorescence lifetime (τf) [1] | relative uptake efficiency versus compound of Structural Formula (III) [2] | quantum yield of singlet oxygen (ΦΔ) [3] | fluorescence quantum yield (Φf) [4] | quantum yield of singlet oxygen (ΦΔ) of standard substance [5]
1 | 3-trimethylsilyl-1-benzenecarboxyamide,N-[3-n-propyl-α-D-quinovopyranoside]-5-[10,15,20-tris(3-methoxycarbonyl-5-trimethylsilylphenyl)porphyrin] sodium salt [IIa] | 9.2 | 1.8 times | 0.53 | 0.063 | –
2 | COC(=O)c1cc(-c2c3nc(c(-c4cc(C(=O)OC)cc([Si](C)(C)C)c4)c4ccc([nH]4)c(-c4cc(C(=O)OC)cc([Si](C)(C)C)c4)c4nc(c(-c5cc(C(=O)NCCCO[C@H]6O[C@H](CO)[C@@H](O)[C@H](O)[C@H]6O)cc([Si](C)(C)C)c5)c5ccc2[nH]5)C=C4)C=C3)cc([Si](C)(C)C)c1 [IId, 3-trimethylsilyl-1-benzenecarboxyamide,N-[3-n-propyl-α-D-glucopyranoside]-5-[10,15,20-tris(3-methoxycarbonyl-5-trimethylsilylphenyl)porphyrin]] | 9.3 | – | – | 0.056 | –
3 | O=S(=O)(O)c1ccc(-c2c3nc(c(-c4ccc(S(=O)(=O)O)cc4)c4ccc([nH]4)c(-c4ccc(S(=O)(=O)O)cc4)c4nc(c(-c5ccc(S(=O)(=O)O)cc5)c5ccc2[nH]5)C=C4)C=C3)cc1 [TPPS] | – | – | – | – | 0.63
